{"source": "patent US11969428B2", "about": "“Methods and pharmaceutical compositions for treating lymphoid malignancy” (priority 2011, dated 2024)", "experiment_in_all_cases": "Ambit KinomeScan screening", "type_in_all_cases": "binding", "settings_in_all_cases": "CAL-130 10 μM", "key": {"[1]": {"target": "T1, PIK3CG (Homo sapiens, UniProt P48736)", "T1 construct": "unspecified tag; purchased Ambit (KinomeScan screening panel)", "outline": "(§1)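 Tagged kinases are exposed to an immobilized bait ligand with CAL-130 (10 μM) present. Kinase binding to the bait is then quantified relative to control. Results are given as % of control, where over 35% is scored as no hit.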"}, "[2]": {"target": "T2, PHKG2 (Homo sapiens, UniProt P15735)", "T2 construct": "unspecified tag ('tagged kinases'); purchased Ambit (KinomeScan screening)", "outline": "as §1"}, "[3]": {"target": "T3, IRAK1 (Homo sapiens, UniProt P51617)", "T3 construct": "Ambit (KinomeScan screening)", "outline": "as §1"}, "[4]": {"target": "T4, MST3 (Homo sapiens, UniProt Q9Y6E0)", "T4 construct": "unspecified tag; purchased Ambit (KinomeScan screening panel)", "outline": "as §1"}, "[5]": {"target": "T5, ERK5 (Homo sapiens, UniProt Q13164)", "T5 construct": "unspecified tag (\"tagged kinases\"); purchased Ambit (KinomeScan screening service)", "outline": "as §1"}, "[6]": {"target": "T6, TGFBR2 (Homo sapiens, UniProt P37173)", "T6 construct": "unspecified tag (tagged kinase); purchased Ambit (KinomeScan screening)", "T6 sequence (P37173 23-567)": "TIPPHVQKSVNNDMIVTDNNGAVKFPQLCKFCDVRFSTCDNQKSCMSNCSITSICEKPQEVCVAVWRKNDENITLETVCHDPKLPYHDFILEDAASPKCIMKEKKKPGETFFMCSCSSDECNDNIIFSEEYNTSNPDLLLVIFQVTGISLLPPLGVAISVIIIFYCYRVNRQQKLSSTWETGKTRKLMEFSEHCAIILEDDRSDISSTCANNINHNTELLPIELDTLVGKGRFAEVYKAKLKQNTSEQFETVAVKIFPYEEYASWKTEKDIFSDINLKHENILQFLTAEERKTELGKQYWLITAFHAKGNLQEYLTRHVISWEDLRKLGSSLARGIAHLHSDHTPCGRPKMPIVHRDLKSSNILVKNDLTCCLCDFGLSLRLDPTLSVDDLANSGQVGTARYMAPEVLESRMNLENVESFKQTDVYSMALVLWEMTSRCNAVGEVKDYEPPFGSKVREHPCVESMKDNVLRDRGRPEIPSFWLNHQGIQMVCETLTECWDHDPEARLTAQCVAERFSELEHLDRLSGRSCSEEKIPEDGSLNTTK", "outline": "as §1"}, "[7]": {"target": "T7, RPS6KA2 (Homo sapiens, UniProt Q15349)", "T7 construct": "unspecified tag (tagged kinase); purchased Ambit (KinomeScan screening)", "outline": "as §1"}, "[8]": {"target": "T8, LIMK2 (Homo sapiens, UniProt P53671)", "T8 construct": "unspecified tag ('tagged kinases'); purchased Ambit (KinomeScan screening service)", "outline": "as §1"}, "[9]": {"target": "T9, WEE2 (Homo sapiens, UniProt P0C1S8)", "T9 construct": "purchased Ambit (KinomeScan screening service)", "outline": "as §1"}, "[10]": {"target": "T10, TXK (Homo sapiens, UniProt P42681)", "T10 construct": "tag, kind not specified; purchased Ambit (KinomeScan screening service)", "outline": "as §1"}, "[11]": {"target": "T11, DAPK3 (Homo sapiens, UniProt O43293)", "T11 construct": "unspecified tag (\"tagged kinases\"); purchased Ambit (KinomeScan screening service)", "outline": "as §1"}, "[12]": {"target": "T12, RAF1 (Homo sapiens, UniProt P04049)", "T12 construct": "tag (kind not specified); purchased Ambit (KinomeScan screening service)", "outline": "as §1"}, "[13]": {"target": "T13, PLK4 (Homo sapiens, UniProt O00444)", "T13 construct": "purchased Ambit (KinomeScan screening service)", "outline": "as §1"}, "[14]": {"target": "T14, CSNK2A1 (Homo sapiens, UniProt P68400)", "T14 construct": "purchased Ambit (KinomeScan screening service)", "outline": "as §1"}, "[15]": {"target": "T15, ASK2 (Homo sapiens, UniProt O95382)", "T15 construct": "purchased Ambit (KinomeScan screening service)", "outline": "as §1"}, "[16]": {"target": "T16, IGF1R (Homo sapiens, UniProt P08069)", "T16 construct": "Ambit (KinomeScan screening)", "outline": "as §1"}, "[17]": {"target": "T17, CSNK1E (Homo sapiens, UniProt P49674)", "T17 construct": "purchased Ambit (KinomeScan screening service)", "outline": "as §1"}, "[18]": {"target": "T18, FLT3(K663Q) (Homo sapiens, UniProt P36888, K663Q)", "T18 construct": "unspecified tag; purchased Ambit (KinomeScan screening service)", "outline": "as §1"}, "[19]": {"target": "T19, HIPK2 (Homo sapiens, UniProt Q9H2X6)", "T19 construct": "unspecified tag ('tagged kinases'); purchased Ambit (KinomeScan screening service)", "outline": "as §1"}, "[20]": {"target": "T20, PAK2 (Homo sapiens, UniProt Q13177)", "T20 construct": "purchased Ambit (KinomeScan screening service)", "outline": "as §1"}, "[21]": {"target": "T21, EPHB4 (Homo sapiens, UniProt P54760)", "T21 construct": "purchased Ambit (KinomeScan screening service)", "T21 sequence (P54760 16-987)": "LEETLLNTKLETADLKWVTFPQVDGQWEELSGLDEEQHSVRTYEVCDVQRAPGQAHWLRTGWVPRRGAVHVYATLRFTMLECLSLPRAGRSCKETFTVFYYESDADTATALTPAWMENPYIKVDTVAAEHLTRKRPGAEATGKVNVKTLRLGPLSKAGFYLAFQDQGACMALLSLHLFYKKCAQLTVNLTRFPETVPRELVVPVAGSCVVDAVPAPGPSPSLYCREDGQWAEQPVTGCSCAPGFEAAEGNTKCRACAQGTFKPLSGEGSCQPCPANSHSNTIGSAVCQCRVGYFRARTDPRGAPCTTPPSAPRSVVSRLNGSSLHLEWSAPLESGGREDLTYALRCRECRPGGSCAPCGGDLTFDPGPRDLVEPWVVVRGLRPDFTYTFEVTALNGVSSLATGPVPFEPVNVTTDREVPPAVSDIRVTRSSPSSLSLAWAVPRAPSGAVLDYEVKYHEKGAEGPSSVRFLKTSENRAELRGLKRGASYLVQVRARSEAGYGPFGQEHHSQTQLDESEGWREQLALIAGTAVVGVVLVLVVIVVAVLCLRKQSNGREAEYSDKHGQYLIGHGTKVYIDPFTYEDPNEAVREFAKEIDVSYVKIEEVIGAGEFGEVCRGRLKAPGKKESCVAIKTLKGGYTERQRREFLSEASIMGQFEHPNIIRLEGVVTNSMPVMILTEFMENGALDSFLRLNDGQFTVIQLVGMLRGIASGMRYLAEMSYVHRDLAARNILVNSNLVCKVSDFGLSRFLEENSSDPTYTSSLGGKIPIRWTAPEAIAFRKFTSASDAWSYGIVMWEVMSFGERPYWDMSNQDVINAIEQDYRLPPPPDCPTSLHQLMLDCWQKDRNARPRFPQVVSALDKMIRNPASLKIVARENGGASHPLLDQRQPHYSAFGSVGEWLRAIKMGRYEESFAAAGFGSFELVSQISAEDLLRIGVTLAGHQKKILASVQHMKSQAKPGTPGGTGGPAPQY", "outline": "as §1"}, "[22]": {"target": "T22, MLK2 (Homo sapiens, UniProt Q02779)", "T22 construct": "unspecified tag ('tagged kinases'); purchased Ambit (KinomeScan screening)", "outline": "as §1"}, "[23]": {"target": "T23, PAK6 (Homo sapiens, UniProt Q9NQU5)", "T23 construct": "tag (kind not specified); purchased Ambit (KinomeScan screening service)", "outline": "as §1"}, "[24]": {"target": "T24, CSF1R (Homo sapiens, UniProt P07333)", "T24 construct": "purchased Ambit (KinomeScan screening service)", "T24 sequence (P07333 20-972)": "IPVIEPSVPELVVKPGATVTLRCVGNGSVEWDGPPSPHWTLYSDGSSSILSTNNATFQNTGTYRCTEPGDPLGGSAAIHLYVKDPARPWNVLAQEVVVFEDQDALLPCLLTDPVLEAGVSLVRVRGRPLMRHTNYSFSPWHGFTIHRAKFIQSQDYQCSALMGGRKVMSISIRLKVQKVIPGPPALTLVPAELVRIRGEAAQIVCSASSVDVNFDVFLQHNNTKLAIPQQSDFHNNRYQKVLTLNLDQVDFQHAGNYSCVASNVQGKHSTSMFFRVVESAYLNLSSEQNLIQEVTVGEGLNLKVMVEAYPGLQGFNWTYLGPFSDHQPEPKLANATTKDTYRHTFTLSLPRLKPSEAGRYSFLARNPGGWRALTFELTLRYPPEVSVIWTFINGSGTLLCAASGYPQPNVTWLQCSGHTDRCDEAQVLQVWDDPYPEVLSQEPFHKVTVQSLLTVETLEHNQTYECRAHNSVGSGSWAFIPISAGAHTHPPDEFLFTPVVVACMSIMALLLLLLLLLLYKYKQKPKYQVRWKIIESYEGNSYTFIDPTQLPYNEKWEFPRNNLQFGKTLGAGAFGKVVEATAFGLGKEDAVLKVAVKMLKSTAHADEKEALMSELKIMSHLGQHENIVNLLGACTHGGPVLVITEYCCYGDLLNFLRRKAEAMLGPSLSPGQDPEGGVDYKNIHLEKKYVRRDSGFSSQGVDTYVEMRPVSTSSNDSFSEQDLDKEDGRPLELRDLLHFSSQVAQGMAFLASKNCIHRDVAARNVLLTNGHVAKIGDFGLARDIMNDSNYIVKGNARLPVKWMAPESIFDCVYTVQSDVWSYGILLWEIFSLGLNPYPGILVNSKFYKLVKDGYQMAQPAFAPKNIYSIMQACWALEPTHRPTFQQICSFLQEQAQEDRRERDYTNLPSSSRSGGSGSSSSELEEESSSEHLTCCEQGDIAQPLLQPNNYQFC", "outline": "as §1"}, "[25]": {"target": "T25, ULK1 (Homo sapiens, UniProt O75385)", "T25 construct": "tag, kind not specified; purchased Ambit (KinomeScan screening service)", "outline": "as §1"}, "[26]": {"target": "T26, BRK (Homo sapiens, UniProt Q13882)", "T26 construct": "unspecified tag (\"tagged kinases\"); purchased Ambit (KinomeScan screening)", "outline": "as §1"}, "[27]": {"target": "T27, MLCK (Homo sapiens, UniProt Q32MK0)", "T27 construct": "unspecified tag ('tagged kinases'); purchased Ambit (KinomeScan screening)", "outline": "as §1"}, "[28]": {"target": "T28, PHKG1 (Homo sapiens, UniProt Q16816)", "T28 construct": "unspecified tag ('tagged kinases'); purchased Ambit (KinomeScan screening)", "outline": "as §1"}, "[29]": {"target": "T29, FAK (Homo sapiens, UniProt Q05397)", "T29 construct": "unspecified tag (\"tagged kinases\"); purchased Ambit (KinomeScan screening service)", "outline": "as §1"}, "[30]": {"target": "T30, SRPK1 (Homo sapiens, UniProt Q96SB4)", "T30 construct": "tag, kind not specified; purchased Ambit (KinomeScan screening service)", "outline": "as §1"}, "[31]": {"target": "T31, CDC2L2 (Homo sapiens, UniProt Q9UQ88)", "T31 construct": "purchased Ambit (KinomeScan screening)", "outline": "as §1"}, "[32]": {"target": "T32, EPHA6 (Homo sapiens, UniProt Q9UF33)", "T32 construct": "purchased Ambit (KinomeScan screening service)", "T32 sequence (Q9UF33 23-1036)": "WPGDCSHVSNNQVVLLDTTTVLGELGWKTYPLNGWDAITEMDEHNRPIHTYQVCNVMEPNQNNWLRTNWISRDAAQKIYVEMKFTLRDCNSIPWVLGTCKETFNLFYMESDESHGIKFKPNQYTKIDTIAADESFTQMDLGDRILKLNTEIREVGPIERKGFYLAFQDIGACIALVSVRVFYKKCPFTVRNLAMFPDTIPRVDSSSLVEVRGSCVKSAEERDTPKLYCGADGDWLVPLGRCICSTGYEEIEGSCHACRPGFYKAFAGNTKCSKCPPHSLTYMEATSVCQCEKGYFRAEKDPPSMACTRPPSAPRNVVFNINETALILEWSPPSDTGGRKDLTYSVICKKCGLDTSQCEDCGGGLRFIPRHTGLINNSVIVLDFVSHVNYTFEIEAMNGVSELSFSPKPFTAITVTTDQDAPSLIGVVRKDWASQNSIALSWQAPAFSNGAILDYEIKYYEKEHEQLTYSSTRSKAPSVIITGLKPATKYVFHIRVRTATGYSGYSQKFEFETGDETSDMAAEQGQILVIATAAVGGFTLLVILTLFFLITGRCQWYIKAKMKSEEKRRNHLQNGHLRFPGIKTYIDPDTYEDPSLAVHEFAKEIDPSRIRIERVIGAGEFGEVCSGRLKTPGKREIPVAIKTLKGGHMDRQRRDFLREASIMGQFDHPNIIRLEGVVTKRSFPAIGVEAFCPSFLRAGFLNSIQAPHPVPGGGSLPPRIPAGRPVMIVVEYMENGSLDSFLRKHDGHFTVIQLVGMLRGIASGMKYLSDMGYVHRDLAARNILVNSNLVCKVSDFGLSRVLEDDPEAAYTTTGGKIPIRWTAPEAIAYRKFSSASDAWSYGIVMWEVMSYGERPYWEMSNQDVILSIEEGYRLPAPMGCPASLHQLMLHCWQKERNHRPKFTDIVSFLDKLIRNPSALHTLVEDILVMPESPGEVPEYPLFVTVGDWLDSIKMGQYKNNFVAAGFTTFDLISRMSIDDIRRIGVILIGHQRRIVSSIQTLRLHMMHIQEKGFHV", "outline": "as §1"}, "[33]": {"target": "T33, MAPKAPK2 (Homo sapiens, UniProt P49137)", "T33 construct": "Ambit (KinomeScan screening)", "outline": "as §1"}, "[34]": {"target": "T34, FLT3(N841I) (Homo sapiens, UniProt P36888, N841I)", "T34 construct": "unspecified tag; purchased Ambit (KinomeScan screening service)", "outline": "as §1"}, "[35]": {"target": "T35, RIOK1 (Homo sapiens, UniProt Q9BRS2)", "T35 construct": "unspecified tag (tagged kinase); purchased Ambit (KinomeScan screening)", "T35 sequence (Q9BRS2 whole entry)": "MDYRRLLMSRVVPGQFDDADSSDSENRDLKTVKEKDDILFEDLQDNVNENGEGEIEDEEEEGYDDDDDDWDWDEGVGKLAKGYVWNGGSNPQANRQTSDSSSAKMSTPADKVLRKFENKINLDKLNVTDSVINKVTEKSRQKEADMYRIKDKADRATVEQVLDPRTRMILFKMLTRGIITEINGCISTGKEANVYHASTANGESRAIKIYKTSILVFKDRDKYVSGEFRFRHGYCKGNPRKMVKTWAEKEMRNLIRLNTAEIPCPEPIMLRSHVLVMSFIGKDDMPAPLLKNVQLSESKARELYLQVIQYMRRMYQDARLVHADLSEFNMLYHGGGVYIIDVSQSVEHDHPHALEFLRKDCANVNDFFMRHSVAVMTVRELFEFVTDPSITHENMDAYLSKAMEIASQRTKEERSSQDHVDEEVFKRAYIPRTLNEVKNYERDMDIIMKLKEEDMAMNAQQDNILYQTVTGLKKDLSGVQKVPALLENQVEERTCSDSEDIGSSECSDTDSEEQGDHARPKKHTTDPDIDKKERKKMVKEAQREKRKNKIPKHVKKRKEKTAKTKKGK", "outline": "as §1"}, "[36]": {"target": "T36, SRMS (Homo sapiens, UniProt Q9H3Y6)", "T36 construct": "tag, kind not specified; purchased Ambit (KinomeScan screening service)", "T36 sequence (Q9H3Y6 whole entry)": "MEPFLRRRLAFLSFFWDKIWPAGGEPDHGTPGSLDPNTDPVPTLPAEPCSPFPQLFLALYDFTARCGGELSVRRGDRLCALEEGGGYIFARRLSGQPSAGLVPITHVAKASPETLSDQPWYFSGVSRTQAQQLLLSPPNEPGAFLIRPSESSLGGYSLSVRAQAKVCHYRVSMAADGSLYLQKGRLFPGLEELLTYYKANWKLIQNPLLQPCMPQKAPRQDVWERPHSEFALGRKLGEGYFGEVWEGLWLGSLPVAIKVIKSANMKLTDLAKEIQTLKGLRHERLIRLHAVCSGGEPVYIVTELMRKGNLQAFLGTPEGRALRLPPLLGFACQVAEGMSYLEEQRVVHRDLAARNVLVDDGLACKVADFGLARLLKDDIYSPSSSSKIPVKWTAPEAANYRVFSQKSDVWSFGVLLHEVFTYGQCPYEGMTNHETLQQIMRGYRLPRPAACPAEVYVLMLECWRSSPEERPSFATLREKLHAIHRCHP", "outline": "as §1"}}, "data": [{"smiles": "Cc1ccccc1-n1c(C(C)Nc2nc(N)nc3nc[nH]c23)nc2cccc(C)c2c1=O", "note": "(stereo not shown) [CAL-130]", "values": [{"measurement": "Percent of Control Binding", "setting": "[1]; PI3KCG (Table 2)", "value": 1.2, "unit": "%"}, {"measurement": "Percent of Control Binding", "setting": "[1]; PIK3CG / PI3Kγ (Table 1)", "value": 10, "unit": "%"}, {"measurement": "Percent of Control Binding", "setting": "[2]", "value": 100, "unit": "%"}, {"measurement": "Percent of Control Binding", "setting": "[3]", "value": 100, "unit": "%"}, {"measurement": "Percent of Control Binding", "setting": "[4]", "value": 100, "unit": "%"}, {"measurement": "Percent of Control Binding", "setting": "[5]", "value": 100, "unit": "%"}, {"measurement": "Percent of Control Binding", "setting": "[6]", "value": 100, "unit": "%"}, {"measurement": "Percent of Control Binding", "setting": "[7]", "value": 100, "unit": "%"}, {"measurement": "Percent of Control Binding", "setting": "[8]", "value": 100, "unit": "%"}, {"measurement": "Percent of Control Binding", "setting": "[9]", "value": 100, "unit": "%"}, {"measurement": "Percent of Control Binding", "setting": "[10]", "value": 100, "unit": "%"}, {"measurement": "Percent of Control Binding", "setting": "[11]", "value": 100, "unit": "%"}, {"measurement": "Percent of Control Binding", "setting": "[12]", "value": 100, "unit": "%"}, {"measurement": "Percent of Control Binding", "setting": "[13]", "value": 100, "unit": "%"}, {"measurement": "Percent of Control Binding", "setting": "[14]", "value": 100, "unit": "%"}, {"measurement": "Percent of Control Binding", "setting": "[15]", "value": 100, "unit": "%"}, {"measurement": "Percent of Control Binding", "setting": "[16]", "value": 100, "unit": "%"}, {"measurement": "Percent of Control Binding", "setting": "[17]", "value": 100, "unit": "%"}, {"measurement": "Percent of Control Binding", "setting": "[18]", "value": 100, "unit": "%"}, {"measurement": "Percent of Control Binding", "setting": "[19]", "value": 100, "unit": "%"}, {"measurement": "Percent of Control Binding", "setting": "[20]", "value": 100, "unit": "%"}, {"measurement": "Percent of Control Binding", "setting": "[21]", "value": 100, "unit": "%"}, {"measurement": "Percent of Control Binding", "setting": "[22]", "value": 100, "unit": "%"}, {"measurement": "Percent of Control Binding", "setting": "[23]", "value": 100, "unit": "%"}, {"measurement": "Percent of Control Binding", "setting": "[24]", "value": 100, "unit": "%"}, {"measurement": "Percent of Control Binding", "setting": "[25]", "value": 100, "unit": "%"}, {"measurement": "Percent of Control Binding", "setting": "[26]", "value": 100, "unit": "%"}, {"measurement": "Percent of Control Binding", "setting": "[27]", "value": 100, "unit": "%"}, {"measurement": "Percent of Control Binding", "setting": "[28]", "value": 100, "unit": "%"}, {"measurement": "Percent of Control Binding", "setting": "[29]", "value": 100, "unit": "%"}, {"measurement": "Percent of Control Binding", "setting": "[30]", "value": 100, "unit": "%"}, {"measurement": "Percent of Control Binding", "setting": "[31]", "value": 100, "unit": "%"}, {"measurement": "Percent of Control Binding", "setting": "[32]", "value": 100, "unit": "%"}, {"measurement": "Percent of Control Binding", "setting": "[33]", "value": 100, "unit": "%"}, {"measurement": "Percent of Control Binding", "setting": "[34]", "value": 100, "unit": "%"}, {"measurement": "Percent of Control Binding", "setting": "[35]", "value": 100, "unit": "%"}, {"measurement": "Percent of Control Binding", "setting": "[36]", "value": 100, "unit": "%"}]}]}
